The results in this text go back to US20240174674A1, “NITROGEN-CONTAINING POLYCYCLIC FUSED RING COMPOUND, PHARMACEUTICAL COMPOSITION THEREOF, PREPARATION METHOD THEREFOR, AND USE THEREOF” (APPLIED PHARMACEUTICAL SCIENCE, INC., priority 2021, published 2024).

For one assay, the target named is RET-wt (Homo sapiens (Human), UniProt P07949). The assay can be described thus: HTRF KinEASE-TK kinase activity test, RET-wt. Type of assay: biochemical. The note with it: for IC50: HTRF kinase assay; for inhibitory activity against RET-wt compared to that of cabozantinib: versus cabozantinib. (In general: TR-FRET usually uses a lanthanide donor and a delayed reading to cut background.)
Sequence of RET-wt (P07949 29-1114): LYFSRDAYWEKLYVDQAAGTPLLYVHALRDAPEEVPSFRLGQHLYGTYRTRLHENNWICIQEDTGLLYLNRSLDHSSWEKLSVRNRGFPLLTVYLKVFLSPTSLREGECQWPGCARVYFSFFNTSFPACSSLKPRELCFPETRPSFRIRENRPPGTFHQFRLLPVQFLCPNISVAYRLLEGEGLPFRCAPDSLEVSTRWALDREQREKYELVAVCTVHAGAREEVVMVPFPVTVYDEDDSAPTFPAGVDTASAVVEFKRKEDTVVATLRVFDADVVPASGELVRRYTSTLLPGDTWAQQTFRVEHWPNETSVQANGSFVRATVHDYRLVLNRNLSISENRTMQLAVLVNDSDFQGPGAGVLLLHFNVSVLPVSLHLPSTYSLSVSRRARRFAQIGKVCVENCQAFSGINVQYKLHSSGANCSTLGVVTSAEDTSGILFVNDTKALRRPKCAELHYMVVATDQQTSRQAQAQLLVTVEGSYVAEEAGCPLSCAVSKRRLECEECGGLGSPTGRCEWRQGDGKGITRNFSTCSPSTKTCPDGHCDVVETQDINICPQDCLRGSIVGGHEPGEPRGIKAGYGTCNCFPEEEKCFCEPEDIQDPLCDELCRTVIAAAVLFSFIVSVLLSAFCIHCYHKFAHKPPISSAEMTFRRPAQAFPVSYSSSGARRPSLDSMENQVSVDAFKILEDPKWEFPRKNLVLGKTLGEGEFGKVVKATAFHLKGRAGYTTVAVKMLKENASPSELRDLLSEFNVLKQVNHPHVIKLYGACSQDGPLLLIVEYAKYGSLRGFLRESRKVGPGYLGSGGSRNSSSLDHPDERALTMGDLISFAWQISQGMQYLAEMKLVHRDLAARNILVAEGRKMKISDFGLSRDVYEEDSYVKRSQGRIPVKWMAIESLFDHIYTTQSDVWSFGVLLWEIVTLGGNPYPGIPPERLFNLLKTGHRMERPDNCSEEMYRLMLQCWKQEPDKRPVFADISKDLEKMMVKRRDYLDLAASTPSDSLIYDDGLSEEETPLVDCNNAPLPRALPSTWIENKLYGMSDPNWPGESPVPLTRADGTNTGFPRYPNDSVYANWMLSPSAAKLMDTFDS

The target of the next assay is RET V804M (Homo sapiens (Human), UniProt P07949, V804M). The assay can be described thus: HTRF KinEASE-TK kinase activity test, RET V804M. The class given is biochemical. The conditions noted are these: for IC50: HTRF kinase assay; for inhibitory activity against RET V804M compared to that of cabozantinib: versus cabozantinib.
Sequence of RET V804M (P07949 29-1114 V804M): as the sequence (P07949 29-1114) above, with V776M counted along it
Another assay deals with RET G810R (Homo sapiens (Human), UniProt P07949, G810R). The assay can be described thus: HTRF KinEASE-TK kinase activity test, RET G810R. The note with it: for inhibitory activity against RET G810R relative to that of selpercatinib (LOXO-292): fold versus selpercatinib (LOXO-292); for IC50: read-out: RET G810R IC50, HTRF kinase assay.
Sequence of RET G810R (P07949 29-1114 G810R): as the sequence (P07949 29-1114) above, with G782R counted along it

As a reminder, the IC50 is the concentration that inhibits the measured activity by half. Turning to `CCOc1cc(-c2ccc(N3CCC(C)(NC(=O)c4ncccc4Cl)CC3)nc2)c2c3cn[nH]c3nn2c1` [Compound 3, 3-chloro-N-(1-(5-(6-ethoxy-1H-pyrazolo[3′,4′:3,4]pyrazolo[1,5-α]pyridin-4-yl)pyridin-2-yl)-4-methylpiperidin-4-yl)-2-picolinamide], at RET-wt, the half-maximal inhibitory concentration (IC50) was 0.1 nM and the “inhibitory activity against RET-wt compared to that of cabozantinib” value is “significantly superior”. At RET V804M, the IC50 turned out to be 0.1 nM and the “inhibitory activity against RET V804M compared to that of cabozantinib” value was “significantly superior”. In addition, on RET G810R, the “inhibitory activity against RET G810R relative to that of selpercatinib (LOXO-292)” value is ≥ 10 times and the half-maximal inhibitory concentration (IC50) was 2.9 nM.

On to `CCOc1cc(-c2ccc(N3CC[C@H](NC(=O)C4(C(F)(F)F)CCC4)[C@@H](O)C3)nc2)c2c3cn[nH]c3nn2c1` [Compound 41], for which, at RET-wt, the concentration for half-maximal inhibition (IC50) was 0.1 nM and the “inhibitory activity against RET-wt compared to that of cabozantinib” value is listed as “significantly superior”. For the same compound, at RET V804M, the half-inhibitory concentration (IC50) was found to be 0.1 nM and the “inhibitory activity against RET V804M compared to that of cabozantinib” value is reported as “significantly superior”. Besides, on RET G810R, the “inhibitory activity against RET G810R relative to that of selpercatinib (LOXO-292)” value was ≥ 10 times and the IC50 was 2.8 nM.

`CCOc1cc(-c2ccc(N3CC[C@H](NC(=O)c4ncccc4Cl)[C@H](O)C3)nc2)c2c3cn[nH]c3nn2c1` [Compound 42]: on RET-wt, the midpoint of inhibition, the IC50, lay at 0.1 nM and the “inhibitory activity against RET-wt compared to that of cabozantinib” value is “significantly superior”. In addition, at RET V804M, the midpoint of inhibition, the IC50, lay at 0.05 nM and the “inhibitory activity against RET V804M compared to that of cabozantinib” value is given as “significantly superior”. Moreover, at RET G810R, the “inhibitory activity against RET G810R relative to that of selpercatinib (LOXO-292)” value is given as ≥ 10 times and the IC50 is 1.4 nM.

For `CCOc1cc(-c2ccc(N3CCC(C)(NC(=O)c4ncc(F)cc4Cl)CC3)nc2)c2c3cn[nH]c3nn2c1` [Compound 4], on RET-wt, the 50% inhibitory concentration (IC50) turned out to be 0.1 nM and the “inhibitory activity against RET-wt compared to that of cabozantinib” value is recorded as “significantly superior”. At RET V804M, the concentration for half-maximal inhibition (IC50) is 0.03 nM and the “inhibitory activity against RET V804M compared to that of cabozantinib” value is given as “significantly superior”. Further, on RET G810R, the “inhibitory activity against RET G810R relative to that of selpercatinib (LOXO-292)” value was ≥ 10 times and the IC50 came to 2.3 nM.

For the compound `CCOc1cc(-c2ccc(N3CC[C@H](NC(=O)OC(C)(C)C)[C@@H](O)C3)nc2)c2c3cn[nH]c3nn2c1` [Compound 88, Tert-butyl ((3S,4S)-1-(5-(6-ethoxy-1H-pyrazolo[3′,4′:3,4]pyrazolo[1,5-α]pyridin-4-yl)pyridin-2-yl)-3-hydroxypiperidin-4-yl)carbamate], on RET-wt, inhibition was half-maximal at 0.1 nM (IC50) and the “inhibitory activity against RET-wt compared to that of cabozantinib” value was “significantly superior”. For the same compound, at RET V804M, 0.2 nM corresponded to half-maximal inhibition (IC50) and the “inhibitory activity against RET V804M compared to that of cabozantinib” value is listed as “significantly superior”. The concentration for half-maximal inhibition (IC50) on RET G810R is 7.8 nM.

As for `CCOc1cc(-c2ccc(N3CC[C@H](NC(=O)CC(C)C)[C@@H](O)C3)nc2)c2c3cn[nH]c3nn2c1` [Compound 39], at RET-wt, the IC50 was found to be 0.1 nM and the “inhibitory activity against RET-wt compared to that of cabozantinib” value is given as “significantly superior”. Also, at RET V804M, half-maximal inhibition (IC50) required 0.1 nM and the “inhibitory activity against RET V804M compared to that of cabozantinib” value is on record as “significantly superior”. Besides, the IC50 on RET G810R turned out to be 4.2 nM.

For `CCOc1cc(-c2ccc(N3CCC(CO)(NC(=O)c4c(F)cccc4F)CC3)nc2)c2c3cn[nH]c3nn2c1` [Compound 11, N-(1-(5-(6-ethoxy-1H-pyrazolo[3′,4′:3,4]pyrazolo[1,5-α]pyridin-4-yl)pyridin-2-yl)-4-(hydroxymethyl)piperidin-4-yl)-2,6-difluorobenzamide], on RET-wt, half-maximal inhibition (IC50) was put at 0.1 nM and the “inhibitory activity against RET-wt compared to that of cabozantinib” value is “significantly superior”. For the same compound, at RET V804M, the IC50 turned out to be 0.1 nM and the “inhibitory activity against RET V804M compared to that of cabozantinib” value was “significantly superior”. Also, at RET G810R, the “inhibitory activity against RET G810R relative to that of selpercatinib (LOXO-292)” value was ≥ 10 times and the IC50 was determined as 0.36 nM.

For `CCOc1cc(-c2ccc(N3CC[C@H](NC(=O)c4c(F)cccc4Cl)[C@@H](O)C3)nc2)c2c3cn[nH]c3nn2c1` [Compound 44, 2-chloro-N-((3S,4S)-1-(5-(6-ethoxy-1H-pyrazolo[3′,4′:3,4]pyrazolo[1,5-α]pyridin-4-yl)pyridin-2-yl)-3-hydroxypiperidin-4-yl)-6-fluorobenzamide], on RET-wt, inhibition was half-maximal at 0.1 nM (IC50) and the “inhibitory activity against RET-wt compared to that of cabozantinib” value was “significantly superior”. Moreover, on RET V804M, the IC50 was found to be 0.1 nM and the “inhibitory activity against RET V804M compared to that of cabozantinib” value is listed as “significantly superior”. Besides, at RET G810R, the “inhibitory activity against RET G810R relative to that of selpercatinib (LOXO-292)” value is reported as ≥ 10 times and the IC50 stood at 0.8 nM.

As for `CCOc1cc(-c2ccc(N3CCC(C)(NC(=O)c4cc(F)ccc4C)CC3)nc2)c2c3cn[nH]c3nn2c1` [Compound 1, N-(1-(5-(6-ethoxy-1H-pyrazolo[3′,4′:3,4]pyrazolo[1,5-α]pyridin-4-yl)pyridin-2-yl)-4-methylpiperidin-4-yl)-5-fluoro-2-methylbenzamide], the half-maximal inhibitory concentration (IC50) on RET G810R came to 6.5 nM.

On to `CCOc1cc(-c2ccc(N3CC[C@H](NC(=O)c4cc(F)ccc4C)[C@@H](O)C3)nc2)c2c3cn[nH]c3nn2c1` [Compound 46], for which, on RET-wt, the half-inhibitory concentration (IC50) was 0.1 nM and the “inhibitory activity against RET-wt compared to that of cabozantinib” value is “significantly superior”. Moreover, on RET V804M, the IC50 stood at 0.06 nM and the “inhibitory activity against RET V804M compared to that of cabozantinib” value is reported as “significantly superior”. In addition, at RET G810R, the “inhibitory activity against RET G810R relative to that of selpercatinib (LOXO-292)” value is ≥ 10 times and the IC50 turned out to be 1.6 nM.

For `CCOc1cc(-c2ccc(N3CCN(Cc4ccc(OC)nc4)C(CO)C3)nc2)c2c3cn[nH]c3nn2c1` (stereo not drawn) [Compound 249, (4-(5-(6-ethoxy-1H-pyrazolo[3′,4′:3,4]pyrazolo[1,5-α]pyridin-4-yl)pyridin-2-yl)-1-((6-methoxypyridin-3-yl)methylene)piperazin-2-yl)methanol], at RET G810R, the half-maximal inhibitory concentration (IC50) amounted to 13.5 nM.
